How the values were obtained:
Format in all cases: in vivo
[1] = system: Housefly [Musca domestica]; assay: Housefly insecticidal test; conditions: μg per 25 female flies; mortality after 48 hours
How it was run: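 Dry-film exposure of 25 female houseflies per cage, 48 h; LC50 as μg per 25 flies.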

[2] = system: Tobacco Budworm [Heliothis virescens (Fabricius)] eggs; assay: Tobacco budworm egg test; conditions: 2-day old eggs, percent in solution
How it was run: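 Mortality of dipped eggs served as read-out, recorded after untreated controls hatched and began feeding. Treatments used acetone solutions from 0.1% downward, with eggs incubated at 78° F; LC50 is expressed as percent of compound in the solution.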

[3] = system: Cabbage Looper [Trichoplusia ni (Hubner)]; assay: Cabbage looper insecticidal test; conditions: second-instar larvae, percent in solution; 3-5 days
How it was run: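 Steps: dilute compound in 50-50 acetone-water from 0.1% downward; immerse cotyledon pieces 2-3 s and dry; place in humid petri dishes with five second-instar larvae; record mortality at 3-5 days. Dosage-mortality curves yield LC50 as percent in solution.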

[4] = system: Aster Leafhopper [Macrosteles fascifrens (Stal)]; assay: Aster leafhopper insecticidal test; conditions: adults/nymphs, percent in solution; 48 hours
Experimental: The compounds in Tables 1 and 2 above were tested for insecticidal activity using the following testing procedures. LC50 values, based on the results of these tests and calculated according to dosage-mortality curves, are expressed in Table 3.
Aster Leafhopper [Macrosteles fascifrens (Stal)]
Oat seedlings (Avena sp) were grown in a commercial potting soil in cups. When the plants were approximately 10 cm tall they were thinned to three plants per cup and dipped for 2-3 seconds in 50-50 acetone-water solutions of the test compounds. When the plants had dried, a clear plastic tube was placed over them and the bottom end pressed into the cup. Ten aster leafhopper adults/nymphs were then placed in each tube and the tops of the tubes covered with white organdy cloth. Mortality counts were made after 48 hours. Test concentrations ranged from 0.05% down to that at which 50% mortality occurred. The LC50 values are expressed below in Table 3 under the heading "LH" in terms of the percent of the test compound in the solution.

[5] = system: Maize weevil [Sitophilus Zeamais (Motschulsky)]; assay: Maize weevil insecticidal test; conditions: adult weevils, percent in solution; 48 hours
How it was run: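 LC50, in percent of compound in solution, was derived from dosage-mortality curves after 48 h at about 25 °C. Ten adult weevils per container fed on four corn seeds briefly immersed in acetone:water (50:50) solutions of up to 0.01% and dried.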

Compound	LC50, HF [1]	LC50, TBW, E (TBW-E) [2]	LC50, CL [3]	LC50, LH [4]	LC50, MW [5]
CC(C)CC(=Nc1cc(Cl)cc(Cl)c1)OCc1cccc(Oc2ccccc2)c1 [Compound 10]	> 100 µg	> 0.1%	0.01%	> 0.05%	–
CC(C)C(=Nc1cc(Cl)cc(Cl)c1)OCc1cccc(Oc2ccccc2)c1 [Compound 16]	20 µg	0.04%	0.004%	0.0005%	–
CC(C)C(=Nc1cc(Cl)c(Cl)c(Cl)c1)OCc1cccc(Oc2ccccc2)c1 [Compound 20]	64 µg	< 0.1%	0.0025%	0.003%	–
Fc1ccc(N=C(OCc2cccc(Oc3ccccc3)c2)C(Cl)=C(Cl)Cl)cc1 [Compound 49]	> 100 µg	> 0.05%	0.007%	> 0.05%	–
CC(C)C(=Nc1c(F)c(F)cc(F)c1F)OCc1cccc(Oc2ccccc2)c1 [Compound 57]	> 100 µg	0.1%	0.004%	0.0005%	–
COc1ccc(OC)c(N=C(OCc2cccc(Oc3ccccc3)c2)C(C)C)c1 [Compound 69]	> 100 µg	> 0.1%	0.09%	> 0.05%	–
CC(C)C(=Nc1ccc(OC(F)(F)F)cc1)OCc1cccc(Oc2ccccc2)c1 [Compound 70]	< 100 µg	0.01%	< 0.1%	> 0.05%	–
CC(C)C(=Nc1ccc(C(F)(F)F)c(Cl)c1)OCc1cccc(Oc2ccccc2)c1 [Compound 83]	> 100 µg	> 0.1%	0.007%	> 0.05%	–
Cc1ccc(N=C(OCc2cccc(Oc3ccccc3)c2)C(C)C)cc1Cl [Compound 90]	> 100 µg	0.016%	> 0.1%	0.001%	–
COc1c(Cl)cc(N=C(OCc2cccc(Oc3ccccc3)c2)C(C)C)cc1Cl [Compound 91]	37 µg	> 0.01%	0.002%	0.003%	–
CC(C)C(=Nc1ccc(F)cc1F)OCc1coc(Cc2ccccc2)c1 [Compound 486]	15 µg	> 0.1%	> 0.1%	–	> 0.01%
COCc1c(F)c(F)c(COC(=Nc2cccc(C(F)(F)F)c2)C(C)C)c(F)c1F [Compound 503]	21 µg	0.08%	0.001%	–	> 0.01%
CC(C)C(=Nc1ccc(C(F)(F)F)cc1)OCc1cccc(Oc2ccccc2)n1 [Compound 504]	< 100 µg	0.05%	0.00025%	–	0.01%
COCc1c(F)c(F)c(COC(=Nc2ccc(F)c(Cl)c2)C(C)C)c(F)c1F [Compound 505]	14 µg	0.09%	0.0024%	–	> 0.01%
CC(C)C(=Nc1cccc(C(F)(F)F)c1)OCc1cc(Oc2ccccc2)ccn1 [Compound 506]	40 µg	> 0.1%	0.005%	–	> 0.01%
CC(C)C(=Nc1cccc(C(F)(F)F)c1)OCc1ccnc(Oc2ccccc2)c1 [Compound 507]	93 µg	> 0.1%	0.002%	–	> 0.01%
CC(C)C(=Nc1cccc(C(F)(F)F)c1)OCc1cc(Oc2ccc(Cl)cc2)ccn1 [Compound 509]	79 µg	> 0.1%	0.0075%	–	> 0.01%
CC(C)C(=Nc1ccc(F)c(Cl)c1)OCc1ccnc(Oc2ccccc2)c1 [Compound 510]	54 µg	> 0.1%	0.017%	–	> 0.01%
CC(C)C(=Nc1ccc(F)c(Cl)c1)OCc1ccnc(Oc2ccc(F)cc2)c1 [Compound 511]	89 µg	> 0.1%	0.0012%	–	> 0.01%
CC(C)C(=Nc1ccc(OC(F)(F)F)cc1)OCc1cccc(Oc2ccccc2)n1 [Compound 550]	< 100 µg	> 0.1%	0.00034%	–	> 0.01%
CC(C)C(=Nc1ccc(Br)c(F)c1)OCc1cccc(Oc2ccc(Cl)cc2)n1 [Compound 551]	< 100 µg	0.035%	0.00075%	–	> 0.01%
CCc1ccc(N=C(OCc2cccc(Oc3ccc(Cl)cc3)n2)C(C)C)cc1 [Compound 552]	> 100 µg	> 0.1%	0.0016%	–	> 0.01%
CC(C)C(=Nc1ccc(Cl)cc1)OCc1cccc(Oc2ccccc2)n1 [Compound 553]	< 100 µg	0.1%	< 0.1%	–	> 0.01%
CC(C)C(=Nc1ccc(Cl)cc1)OCc1cccc(Oc2ccc(Cl)cc2)n1 [Compound 554]	> 100 µg	0.04%	0.00075%	–	> 0.01%
CC(C)C(=Nc1ccc(Cl)c(C(F)(F)F)c1)OCc1cccc(Oc2ccccc2)n1 [Compound 555]	< 100 µg	> 0.1%	0.002%	–	> 0.01%
CC(C)C(=Nc1ccc2c(c1)OC(F)(F)O2)OCc1cccc(Oc2ccccc2)n1 [Compound 556]	< 100 µg	0.04%	0.0007%	–	> 0.01%
CC(C)C(=Nc1cccc(Br)c1)OCc1cccc(Oc2ccc(Cl)cc2)n1 [Compound 557]	< 100 µg	> 0.1%	0.0004%	–	> 0.01%
CC(C)C(=Nc1ccc(F)c(Br)c1)OCc1cccc(Oc2ccccc2)n1 [Compound 558]	< 100 µg	> 0.1%	0.00045%	–	> 0.01%
CC(C)C(=Nc1ccc(F)c(F)c1)OCc1cccc(Oc2ccc(Cl)cc2)n1 [Compound 559]	< 100 µg	0.017%	0.00027%	–	> 0.01%
C=C(C)C(=Nc1ccc(C(F)(F)F)cc1)OCc1cccc(Oc2ccc(Cl)cc2)n1 [Compound 560]	< 100 µg	< 0.1%	0.0015%	–	> 0.01%

Reference: patent publication US5070210A, “Novel ketenimines as intermediates for insecticides” (ICI Americas Inc., priority 1990, dated 1991)
